Literature values in PubChem BioAssay AID1259409 (Chemical Carcinogenesis Research Information System (CCRIS), 2018).
*1 amine or outer side, *2 acyl side, *3 side chain or, on linkers, in order; H or OH if unused. Where a SMILES comes first, the peptide text is derived from it. CO = O=C([*:1])[*:2]

System: rodent chemically induced tumor inhibition, incidence and multiplicity
Test: CCRIS tumor inhibitor studies
Conditions: for outcome: Carcinogen: AZOXYMETHANE [25843-45-2], 1 WK AFTER LAST AZOXYMETHANE INJECTION (STUDY DURATION: 36 WK), Route [Inhibitor]: DIET, Strain/Sex: F344/MALE, Dose [Carcinogen]: 20 MG/KG 1X A WK FOR 2 WK

## COc1ccc(-c2cc(=O)c3c(OC)c(OC)c(OC)c(OC)c3o2)cc1OC
Dose [Inhibitor]: 0.01% IN DIET FOR 34 WK, Species: RAT, Target Tissue: Type of Lesion: LARGE INTESTINE: ADENOCARCINOMA
  outcome: 67, 55, 18%, not significant
Dose [Inhibitor]: 0.01% IN DIET FOR 34 WK, Species: RAT, Target Tissue: Type of Lesion: LARGE INTESTINE: ADENOMA
  outcome: 33, 45, -36%
Dose [Inhibitor]: 0.05% IN DIET FOR 34 WK, Species: RAT, Target Tissue: Type of Lesion: LARGE INTESTINE: ADENOCARCINOMA
  outcome: 67, 35, 48%, p<0.05
Dose [Inhibitor]: 0.05% IN DIET FOR 34 WK, Species: RAT, Target Tissue: Type of Lesion: LARGE INTESTINE: ADENOMA
  outcome: 33, 50, -52%

## c1cc2c(cc1[C@H]1OC[C@@H]3[C@H]1CO[C@H]3c1ccc3c(c1)OCO3)OCO2
Carcinogen: 4-NITROQUINOLINE-N-OXIDE, 56-57-5, Dose [Inhibitor]: 0, 2.5 MG/100 ML DRINKING WATER (TOTAL WEEKLY DOSE 1.26 MG) FOR 25 WK BEGINNING 5 WK POST CARCINOGEN DOSE (STUDY DURATIO, Route [Inhibitor]: ORAL, Species: MOUSE, Strain/Sex: ICR/FEMALE, Target Tissue: Type of Lesion: LUNG: TUMOR, Dose [Carcinogen]: 0.3 MG ONCE, Promoter: GLYCEROL, 56-81-5
  tumour outcome (control, treated, inhibition, significance): 87%, 47%, 46%, p<0.05
Carcinogen: 7,12-DIMETHYLBENZ[A]ANTHRACENE, 57-97-6, Dose [Inhibitor]: 0, 85 NMOL IN 0.1 ML ACETONE 2/WK FOR 20 WK APPLIED 1 HR PRIOR TO EACH PROMOTER DOSE (STUDY DURATION: 20 WK), Route [Inhibitor]: DERMAL, Species: MOUSE, Strain/Sex: ICR/FEMALE, Target Tissue: Type of Lesion: SKIN: PAPILLOMA, Dose [Carcinogen]: 100 UG IN 0.1 ML ACETONE ONCE, Promoter: 12-O-TETRADECANOYLPHORBOL-13-ACETATE, 16561-29-8
  tumour outcome (control, treated, inhibition, significance): 100%, 85%, 15%, not calculated

## CC/C=C\C/C=C\C/C=C\C/C=C\C/C=C\CCCC(=O)O
Carcinogen: 7,12-DIMETHYLBENZ[A]ANTHRACENE, 57-97-6, Dose [Inhibitor]: 0, 0.5 ML 2/WK FOR 19 WK BEGINNING 1 WK POST CARCINOGEN DOSE ADMINISTERED TO RATS FED HIGH-FAT (20% CORN OIL) DIETS (STU, Route [Inhibitor]: GAVAGE, Species: RAT, Strain/Sex: SPRAGUE-DAWLEY/FEMALE, Target Tissue: Type of Lesion: MAMMARY GLAND: ADENOCARCINOMA, Dose [Carcinogen]: 5 MG ONCE AT 50 D OF AGE, Promoter: NONE USED
  tumour outcome (control, treated, inhibition, significance): 24/30 (80%), 10/24 (42%), 48%, p<0.05
Carcinogen: AZOXYMETHANE, 25843-45-2, Dose [Inhibitor]: 4.7% (VOL/VOL) IN 5% FAT DIET CONTAINING 0.3% LINOLEIC ACID FOR DURATION OF STUDY (STUDY DURATION: 26 WK), Route [Inhibitor]: ORAL, Species: RAT, Strain/Sex: DONRYU/MALE, Target Tissue: Type of Lesion: COLON: ADENOCARCINOMA, Dose [Carcinogen]: 7.4 MG/KG BW IN 0.9% SALINE SOLUTION 1/WK FOR FIRST 11 WK, Promoter: NONE USED
  tumour outcome (control, treated, inhibition, significance): 20/29 (69%), 10/30 (33%), 52%, p<0.01

## CCC(C)C1NC(=O)C(C(C)=O)=C1O (configuration not stated)
Carcinogen: 7,12-DIMETHYLBENZ[A]ANTHRACENE, 57-97-6, Dose [Inhibitor]: 0, 250 UG 3/WK APPLIED 30 MIN PRIOR TO EACH PROMOTER DOSE FOR 140 D (STUDY DURATION: 140 D), Route [Inhibitor]: DERMAL, Species: MOUSE, Strain/Sex: SWISS/FEMALE, Target Tissue: Type of Lesion: SKIN: TUMOR, Dose [Carcinogen]: 200 NMOL IN 100 µL ACETONE ONCE, Promoter: 12-O-TETRADECANOYLPHORBOL-13-ACETATE, 16561-29-8
  tumour outcome (control, treated, inhibition, significance): 100%, 70%, 30%, not calculated

## C/C=C/C1=CC2=C(CO1)C(=O)[C@]1(C)OC(=O)[C@H](C(=O)CCCCC)[C@H]1C2
Carcinogen: PEROXYNITRITE [19059-14-4], Dose [Inhibitor]: 0.0025% FOR 2 WKS BEFORE PROMOTER (STUDY DURATION: 20 WK), Route [Inhibitor]: DRINKING WATER, Species: MOUSE, Strain/Sex: SENCAR/FEMALE (15,?)/(15,?), Target Tissue: Type of Lesion: SKIN: PAPILLOMA, Dose [Carcinogen]: 390 NM IN 0.1 ML 1 MM NAOH ONCE 1 WK AFTER INHIBITOR, Promoter: 12-O-TETRADECANOYLPHORBOL-13-ACETATE [16561-29-8]
  tumour outcome (control, treated, inhibition, significance): 100%, 80%, 20%, not significant
Carcinogen: UVB IRRADIATION, Dose [Inhibitor]: 0.0025% IN DRINKING WATER FOR 2 WKS BEGINNING WHILE MICE RECEIVED UVB (STUDY DURATION: 20 WK), Route [Inhibitor]: DRINKING WATER, Species: MOUSE, Strain/Sex: SENCAR/FEMALE (15,?)/(15,?), Target Tissue: Type of Lesion: SKIN: PAPILLOMA, Dose [Carcinogen]: 15 MIN EACH D FOR 3 D, Promoter: 12-O-TETRADECANOYLPHORBOL-13-ACETATE [16561-29-8]
  tumour outcome (control, treated, inhibition, significance): 100%, 53%, 47%, not significant

## CC(C)[C@H](NC(=O)[C@H](CCCN=C(N)N)NC(=O)N[C@@H](Cc1ccccc1)C(=O)O)C(=O)N[C@H](C=O)CCCN=C(N)N ({Phe-CO}-Arg-Val-Arg-aldehyde)
Carcinogen: 1,2,3,4,5,6-HEXACHLOROCYCLOHEXANE, 319-84-6, Dose [Inhibitor]: 0.1% IN DIET FOR 12 WK POST CARCINOGEN TREATMENT (STUDY DURATION: 48 WK), Route [Inhibitor]: ORAL, Species: MOUSE, Strain/Sex: DDY/MALE, Target Tissue: Type of Lesion: LIVER: NODULAR HYPERPLASIA, Dose [Carcinogen]: 500 PPM IN DIET FOR 24 WK, Promoter: NONE USED
  tumour outcome (control, treated, inhibition, significance): 1/13 (7%), 2/15 (13%), -86%, not significant
Carcinogen: N-BUTYL-N-(4-HYDROXY-BUTYL)NITROSAMINE, 3817-11-6, Dose [Inhibitor]: 0.1% IN DIET FOR 32 WK POST CARCINOGEN TREATMENT (STUDY DURATION: 40 WK), Route [Inhibitor]: ORAL, Species: MOUSE, Strain/Sex: ICR/MALE, Target Tissue: Type of Lesion: URINARY BLADDER: CANCER, Dose [Carcinogen]: 0.05% IN DRINKING WATER FOR FIRST 8 WK THEN FED BASAL DIET CONTAINING INHIBITOR, Promoter: NONE USED
  tumour outcome (control, treated, inhibition, significance): 1/13 (8%), 3/15 (20%), -150%, not significant
Carcinogen: N-BUTYL-N-(4-HYDROXY-BUTYL)NITROSAMINE, 3817-11-6, Dose [Inhibitor]: 0.1% IN DIET FOR 32 WK POST CARCINOGEN TREATMENT (STUDY DURATION: 40 WK), Route [Inhibitor]: ORAL, Species: MOUSE, Strain/Sex: ICR/MALE, Target Tissue: Type of Lesion: URINARY BLADDER: PAPILLARY OR NODULAR HYPERPLASIA, Dose [Carcinogen]: 0.05% IN DRINKING WATER FOR FIRST 8 WK THEN FED BASAL DIET CONTAINING INHIBITOR, Promoter: NONE USED
  tumour outcome (control, treated, inhibition, significance): 4/13 (31%), 8/15 (53%), -71%, not significant
Carcinogen: URETHANE, 51-79-6, Dose [Inhibitor]: 11 INJECTIONS (100 UG/G BW FOR EACH) AT 12 HR INTERVALS FROM 0-120 HR AFTER URETHANE TREATMENT (STUDY DURATION: 5 MO), Route [Inhibitor]: INTRAPERITONEAL, Species: MOUSE, Strain/Sex: ICR/JCI/FEMALE, Target Tissue: Type of Lesion: LUNG: TUMOR, Dose [Carcinogen]: 1.0 MG/G BW ONCE, Promoter: NONE USED
  tumour outcome (control, treated, inhibition, significance): 49/53 (92%), 38/46 (83%), 10%, not significant
Carcinogen: URETHANE, 51-79-6, Dose [Inhibitor]: 11 INJECTIONS (100 UG/G BW FOR EACH) AT 12 HR INTERVALS FROM 240-360 HR AFTER URETHANE TREATMENT (STUDY DURATION: 5 MO), Route [Inhibitor]: INTRAPERITONEAL, Species: MOUSE, Strain/Sex: ICR/JCI/FEMALE, Target Tissue: Type of Lesion: LUNG: TUMOR, Dose [Carcinogen]: 1.0 MG/G BW ONCE, Promoter: NONE USED
  tumour outcome (control, treated, inhibition, significance): 49/53 (92%), 34/45 (76%), 17%, p<0.05

## CC(C)=CCc1cc(/C=C/C(=O)O)cc(CC=C(C)C)c1O
Carcinogen: FERRIC NITRILOTRIACETATE, 16448-54-7, Dose [Inhibitor]: 0, 350 UG/MOUSE IN OLIVE OIL TWICE/D FOR 5 D/WK FOR 1 YR BEGINNING POST CARCINOGEN TREATMENT (STUDY DURATION: 1 YR AND 8, Route [Inhibitor]: ORAL, Species: MOUSE, Strain/Sex: DDY/MALE, Target Tissue: Type of Lesion: KIDNEY: CARCINOMA, Dose [Carcinogen]: 43.6 MG/KG BW/D TWICE/WK FOR FIRST 8 WK, Promoter: NONE
  tumour outcome (control, treated, inhibition, significance): 1/9 (11%), 0/6 (0%), 100%, not significant
